Assay results: patent publication US20240108634A1, “COMPOSITIONS AND METHODS FOR INHIBITING YAP” (The United States Government as represented by the …, priority 2021, published 2024)

What was measured:
YAP-TEAD interaction = biological target: T1, YAP-TEAD interaction (Homo sapiens, UniProt P46937); test: Co-immunoprecipitation of myc-TEAD with HA-YAP from treated LN229 cells; type: cell-based; conditions: LN229 cells, 24 h
T1 construct: expressed in transfected cells; host or cells: LN229
Protocol: FIGS. 1A-G show the identification of a YAP1-TEAD1 binding interface inhibitor. […] The Gal4 DBD was fused to residues 50-171 of human YAP1 and the Gal4 AD was fused to residues 194-411 of human TEAD1. These fusions were expressed in yeast containing reporters harboring Gal4 upstream activating sequences (UAS). […] Yeast expressing either p53-DBD and SV40 large T antigen-AD fusions or YAP1-DBD and TEAD1-AD fusions were plated on selective media. Compounds were pinned onto the plate surfaces by robotic transfer and subsequently examined for halo formation (indicated by red circles). Compounds inhibiting YAP1-TEAD1 mediated growth on selective media while having no effect on p53-T antigen mediated yeast growth were considered specific. Compounds which blocked the growth of both strains were considered nonspecific and were classified as having general antifungal properties. […] His-tagged YAP (amino acids 50-171 of Accession No. NP_006097) was used in a GST pull-down assay using GST-TEAD (amino acids 194-411 of Accession No. NP_068780) immobilized on glutathione resin. Pull-down products were analyzed by SDS-PAGE and silver staining. […] Cells treated with antimycin A are shown as a negative control. […] Raw binding sensorgrams obtained at each concentration were fitted to a 1:1 binding model and Kon, Koff and KD were calculated by simultaneous non-linear regression analyses.
Protein and mRNA analyses, immunoprecipitation, in vitro bead-coupled inhibitor binding assays and HPLC analyses. […] Antigen-antibody complexes were detected using appropriate horseradish peroxidase-conjugated secondary antibodies (GE Healthcare) and enhanced chemiluminescence (Amersham ECL Prime). […] For quantitative RT-PCR, extraction of RNA was performed using Trizol® (Life Technologies). Total RNA was then quantified and integrity assessed using an Agilent 2100 Bioanalyzer (Agilent Technology). […] SYBR® Green quantitative PCR (Millipore Sigma) was performed in triplicate in 96-well optical plates on an ABI Prism 7000 Sequence Detection System (Life Technologies) according to the manufacturer's instructions. […]

full-length human YAP1 = biological target: T2, full-length human YAP1 (Homo sapiens, UniProt P46937); test: Inhibitor-coupled bead binding of recombinant HA-tagged YAP; conditions: immunoblot of bound HA-YAP
T2 construct: purified recombinant HA-tagged full-length human YAP1; made in house
Protocol: FIGS. 1A-G show the identification of a YAP1-TEAD1 binding interface inhibitor. […] The Gal4 DBD was fused to residues 50-171 of human YAP1 and the Gal4 AD was fused to residues 194-411 of human TEAD1. These fusions were expressed in yeast containing reporters harboring Gal4 upstream activating sequences (UAS). […] Yeast expressing either p53-DBD and SV40 large T antigen-AD fusions or YAP1-DBD and TEAD1-AD fusions were plated on selective media. Compounds were pinned onto the plate surfaces by robotic transfer and subsequently examined for halo formation (indicated by red circles). […] Pull-down products were analyzed by SDS-PAGE and silver staining. […] Raw binding sensorgrams obtained at each concentration were fitted to a 1:1 binding model and Kon, Koff and KD were calculated by simultaneous non-linear regression analyses.
Protein and mRNA analyses, immunoprecipitation, in vitro bead-coupled inhibitor binding assays and HPLC analyses. […] Antigen-antibody complexes were detected using appropriate horseradish peroxidase-conjugated secondary antibodies (GE Healthcare) and enhanced chemiluminescence (Amersham ECL Prime). […] For quantitative RT-PCR, extraction of RNA was performed using Trizol® (Life Technologies). Total RNA was then quantified and integrity assessed using an Agilent 2100 Bioanalyzer (Agilent Technology). […]

T1 sequence (P46937 whole entry): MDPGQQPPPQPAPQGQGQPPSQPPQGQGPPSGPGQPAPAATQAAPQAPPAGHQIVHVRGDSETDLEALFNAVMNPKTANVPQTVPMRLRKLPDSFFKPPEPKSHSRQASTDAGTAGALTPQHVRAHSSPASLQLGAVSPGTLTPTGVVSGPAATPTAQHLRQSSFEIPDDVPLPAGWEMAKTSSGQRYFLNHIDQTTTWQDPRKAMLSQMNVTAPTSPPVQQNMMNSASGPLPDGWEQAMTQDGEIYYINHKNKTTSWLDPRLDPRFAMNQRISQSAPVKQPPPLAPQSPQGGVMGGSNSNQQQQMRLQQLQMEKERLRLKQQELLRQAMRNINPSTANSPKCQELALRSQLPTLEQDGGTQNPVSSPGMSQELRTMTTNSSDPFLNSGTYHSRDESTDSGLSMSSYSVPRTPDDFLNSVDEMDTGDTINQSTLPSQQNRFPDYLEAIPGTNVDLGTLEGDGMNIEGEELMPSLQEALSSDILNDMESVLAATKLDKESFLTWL
T2 sequence (P46937 whole entry): as above

Row | Compound | Cell treatment concentration required for observable blockade of the interaction (YAP-TEAD interaction) | Inhibition of HA-YAP/myc-TEAD interaction at equimolar concentrations (YAP-TEAD interaction; equimolar to NSC682769) | Binding of YAP to compound-coupled beads (full-length human YAP1)
1 | verteporfin | 4 µM | ineffective | –
2 | COc1ccc(CN2C(=O)c3ccccc3C2=O)c(OC)c1 [IRES-J007, reference compound] | – | – | no significant binding
